Test results published in patent US12527884B2, “Use of cyclodextrins as a radiostabilizer” (GE Healthcare Limited, priority 2019, dated 2026).

Legend:
[1] = Aqueous solubility of flurpiridaz with HPbCD; assay type: physicochemical
[2] = Radiochemical purity (RCP) and [18F]fluoride of formulated [18F]flurpiridaz during storage (radio TLC or HPLC); assay type: physicochemical
Experimental: Radiochemical purity (RCP) is determined using radio TLC or HPLC and can be defined as the ratio of the (radio-labelled) drug substance peak to the total (radio-labelled) peaks in the chromatogram. If one manufactures a radiopharmaceutical with high radioactive concentration (RAC), the drop in RCP during storage is likely to be higher than at lower RAC due to more radiolysis. High radioactivity results in the drug substance destroying itself (i.e. radiolysis). The most efficient stabilizer can be identified by preparing different formulations of radiopharmaceuticals at similar RAC and comparing the drop in RCP over time, typically 8-10 hours for ^18F compounds.
The first 45 mL product vial was composed of water (42 mL), ethanol (3 mL), calcium disodium edetate (0.25 mg/mL), ascorbic acid (50 mg/mL) and sodium hydroxide (7.5 mg/mL). […]

In the case of `CC(C)(C)n1ncc(OCc2ccc(COCCF)cc2)c(Cl)c1=O` [[^18F]flurpiridaz, flurpiridaz], the aqueous solubility [1] is reported as “improves”, the radiostability ([2]; 30 mg/mL ascorbic acid and 40 mg/mL HPbCD vs 50 mg/mL ascorbic acid without HPbCD) is reported as “equal or better” and the “change in RCP over 4 to 10 h (FIG. 2)” value ([2]; 30 to 50 mg/mL ascorbic acid (pH ~6), with or without 40-47 mg/mL HPbCD, ca. 7% (v/v) ethanol, 0-21% (v/v) oxygen headspace) is reported as “reduction”.
